Experimental data from patent publication US4977276A, “Heteroarotinoids as anticancer agents” (The Board of Regents for the Oklahoma Agricultural and …, priority 1989, dated 1990).
In brackets after ≈: the same amount, converted by molar mass. Entries after “also recorded” stand apart in the source; their conditions may differ. Where two headings read alike, the source gives them in different places.

Columns and labels:
[1] = system: ornithine decarboxylase (ODC); assay: suppression of TPA induced ornithine decarboxylase (ODC) activity in mouse skin; assay type: in vivo; details: for % of Inhibition as Compared to Control: second table (60 min)
Experimental: In the ODC assay, either 13-cis-retinoic acid or trans-retinoic acid was employed. The following Table summarizes the result of the ODC assays.
Epidermus was separated, homogenized, and centrifuged at 30,000× g. Soluble epidermal ODC activity was assayed. The retinoids were evaluated in three independent experiments (3 groups of mice with 3 mice per group) and the results from the experiments were normalized (% inhibition) for comparison. […] Which standard is used appears to be relatively unimportant for determining activity in the assay, but the data presented in the Table identifies the standard for sake of clarity and accuracy of presentation. Thus, the presence of the heteroatom in these arotinoids has not eliminated biological activity. […] Consequently, the nature of the terminus group is also important.

HL-60 cells = assay: induction of differentiation of human HL-60 promyelocytic cells (NBT reduction); assay type: cell-based; details: HL-60, 96 h, read-out: concentration of retinoid effective in achieving a half-maximal response (ED50)
Experimental: These mature cells, unlike the uninduced HL-60, produced superoxide anion when simulated with an appropriate agent, such as TPA. The ability of the individual cells to produce superoxide can be measured by incubating cells with the water-soluble yellow dye, nitroblue tetrazolium (NBT). NBT is reduced to a water-insoluble blue-black formazan by superoxide. This formazan precipitate is associated with those cells that produce superoxide. Thus, the percentage of cells in a population that produce superoxide (NBT-positive cells) can be enumerated under a light microscope.
After incubation for 4 days at 37° C. in a humidified atmosphere of 5% CO2 and air, the capacity of the cells to reduce NBT was determined. […] This cell suspension was mixed with an equal volume of phosphate buffered saline containing 1 mg of NBT/mL and […]. The reaction mixture was incubated at 37° C. for 25 minutes, and the reaction was terminated by cooling in an ice water bath. Cytospin slides were prepared from a portion of this reaction mixture and stained with Wright-Giemsa. A minimum of 200 cells were counted under light microscopy to determine the percentage of cells with cell-associated formazan.

[2] = system: HT-29 (colon adenocarcinoma); assay: Human Tumor Cell Line Bioassay (HTCL), HT-29; assay type: cell-based; details: HT-29, MTT, O.D. 50% of control
Experimental: (§1) The Human Tumor Cell Line Bioassay (HTCL) has been conducted in a manner similar to the procedure described by Alley and co-workers (Cancer Research 1988, 48, 589-601). A panel of 4 tumor cell lines were grown in microliter plates and various concentrations of the test compounds were added to the wells. After 4 days, the number of viable cells were measured in terms of production of formazin after incubation with MTT [3-(4,5-dimethylthiazol-2-yl)-2,5-diphenyltetrazolium bromide]. Formazin production is directly proportional to the viable cell number/well and can be measured spectrophotometrically after solubilization.
The cell lines used in the HTCL assay were A-549 (lung adenocarcinoma), HT-29 (colon adenocarcinoma), MCF-7 (breast adenocarcinoma), and RPMI-7951 (melanoma). […] After detaching from the flask, the cells were resuspended in their appropriate medium, counted on a Coulter Counter (ZBI), and an aliquot was transferred to new T-25 flasks. […] The plates were read on a Dynatech 700 plate reader at 540 nm, and the data were collected on an IBM PC. The data were graphed and the ED50 was determined from the graph.

RPMI-7951 (melanoma) = assay: Human Tumor Cell Line Bioassay (HTCL), RPMI-7951; assay type: cell-based; parameters: key to ED50 Values: NDT: No detectable toxicity; details: RPMI-7951, MTT, O.D. 50% of control; for IC50: Homo sapiens, read-out: ED50 Values
Experimental: as §1
The cell lines used in the HTCL assay were A-549 (lung adenocarcinoma), HT-29 (colon adenocarcinoma), MCF-7 (breast adenocarcinoma), and RPMI-7951 (melanoma). With the exception of HT-29, these cells have been adopted to grow in B10 medium which consists of Eagle's Minimum Essential Medium supplemented with 1.5× the essential amino acids, 2× the non-essential amino acids, 1.5× vitamins, 1× L-glutamine, 10% calf bovine serum (CBS), and 1× antibiotic solution (PSF) consisting of 50 U/mL of penicillin, 50 ug/mL of streptomycin sulfate, and 50 ug/mL of amphotericin B. HT-29 cells were grown in McCoy's 5A medium supplemented with 10% CBS and 1× PSF. Stock cultures of cells were routinely grown in 25 cm^2 flasks (T-25) and passaged on a weekly basis. Cells were passaged by washing twice with phosphate buffered saline (PBS) and once with a 0.005% trypsin--0.01% EDTA solution. Trypsin-EDTA solution was added and the flask was allowed to incubate for 2-5 minutes until the cells were detached. After detaching from the flask, the cells were resuspended in their appropriate medium, counted on a Coulter Counter (ZBI), and an aliquot was transferred to new T-25 flasks. The remaining cells were used to set up the assay in 96 well microliter plates. Either 3,000 (HT-29, MCF-7) or 2,000 (A-549, RPMI-7951) cells were added to the wells in a 96-well microliter plate in 0.2 mL of medium (Day 1). On Day 2, the compounds were resuspended at 1 or 2 mg/mL in acetone, and the compounds were serially diluted 10 or 5 fold in PBS and 20 uL of each dilution starting at 100 or 200 ug/mL was added to 4 wells of the microliter plate. Doxyrubicin was used as a positive control compound. On Day 7, 20 uL of MTT (2 mg/mL) was added to each of the wells. The plates were then incubated at 37° C. for 4 hours. After incubation, the medium and MTT were removed by aspiration and 100 uL of DMSO was added to solubilize the formazin product. The plates were read on a Dynatech 700 plate reader at 540 nm, and the data were collected on an IBM PC. The data were graphed and the ED50 was determined from the graph.

[3] = retinoid dose 17 nmol + TPA, first table, acetone + TPA control 0.90
[4] = in comparison with 13-cis-retinoic acid as the standard, or among the tested compounds
[5] = incubation 4 days at 37° C., NBT-positive cells
[6] = retinoid dose 34 nmol + TPA, second table, acetone + TPA control 1.67
[7] = with trans-retinoic acid as the standard

SMILES: CC1=C(/C=C/C(C)=C/C=C/C(C)=C\C(=O)O)C(C)(C)CCC1 [13-cis-retinoic acid, reference compound]
- ODC Activity [1, 3]: 0.1 ± 0.01 nmol CO2 /30 min/mg protein
- % of Inhibition as Compared to Control ([1]; retinoid dose 17 nmol + TPA): 92%
- ODC Activity ([1]; retinoid dose 17 nmol + TPA, second table, acetone + TPA control 1.67): 0.14 ± 0.04 nmol CO2 /60 min/mg protein

SMILES: CC(/C=C/C=C(\C)c1ccc2c(c1)C(C)(C)CCS2)=C\C(=O)O [(38), 7-[4.4-Dimethylthiochroman-6-yl]-3,7-dimethyl-2,4,6-heptatrienoic acid]
- activity in the ODC assay in words [1, 4]: essentially equivalent in activity to the standard
- ODC Activity [1, 3]: 0.1 ± 0.01 nmol CO2 /30 min/mg protein
- EC50 (HL-60 cells; [5]): 72 nM

SMILES: CCOC(=O)/C=C(C)/C=C/C=C(\C)c1ccc2c(c1)C(C)(C)CCS2 [(39), Ethyl 7-[4,4-Dimethylthiochroman-6-yl]-3,7-dimethyl-2,4,6-heptatrienoate]
- activity in the ODC assay in words [1, 4]: strongest activity; also recorded: more active
- ODC Activity [1, 3]: 0.0 ± 0.0 nmol CO2 /30 min/mg protein

SMILES: CC(/C=C/C=C(\C)c1ccc2c(c1)C(C)(C)CCS2)=C\C(=O)OCCN1C(=O)c2ccccc2C1=O [(40), (2-Phthalimide-ethyl) 7-[4,4-Dimethylthiochroman-6-yl]-3-7-dimethyl-2,4,6-heptatrienoate]
- % of Inhibition as Compared to Control ([1]; retinoid dose 34 nmol + TPA): 42%
- ODC Activity [1, 6]: 0.97 ± 0.13 nmol CO2 /60 min/mg protein
- activity in the ODC assay in words [1, 7]: less active compared to the same control

SMILES: CC(/C=C/C=C(\C)c1ccc2c(c1)C(C)(C)CCO2)=C\C(=O)O [(47), 7-[4,4-Dimethylchroman-6-yl]-3,7-dimethyl-2,4,6-heptatrienoic acid]
- % of Inhibition as Compared to Control ([1]; retinoid dose 34 nmol + TPA): 74%
- ODC Activity [1, 6]: 1.4 ± 0.2 nmol CO2 /60 min/mg protein
- activity in the ODC assay in words [1, 7]: slightly less active than the standard
- EC50 (HL-60 cells; [5]): 200 nM

SMILES: COc1cccc2c1C(=O)c1c(O)c3c(c(O)c1C2=O)C[C@@](O)(C(=O)CO)C[C@@H]3O[C@H]1C[C@H](N)[C@H](O)[C@H](C)O1 [Doxyrubicin]
- ED50 Values ([2]; 5760 min): 0.6 µg/mL (≈ 1.1 µM)
- IC50 ([2]; Homo sapiens, HT-29, 96 h, read-out: ED50 Values): 0.3 µg/mL (≈ 0.552 µM)
- IC50 (RPMI-7951 (melanoma); RPMI-7951, 96 h): 0.2 µg/mL (≈ 0.368 µM)
- ED50 Values (RPMI-7951 (melanoma); 5760 min): 0.1 µg/mL (≈ 0.184 µM)

SMILES: CC1=C(/C=C/C(C)=C/C=C/C(C)=C/C(=O)O)C(C)(C)CCC1 [trans-retinoic acid]
- EC50 (HL-60 cells): 41 nM
- IC50 (RPMI-7951 (melanoma); 96 h): 30 µg/mL (≈ 99.9 µM)
- ED50 Values (RPMI-7951 (melanoma)): NDT
